{"source": "patent US20110071094A1", "about": "“(D)-ALLOSE INDUCING PROGRAMMED CELL DEATH IN HORMONE REFRACTORY PROSTATE CANCER LINES” (INDUSTRY-ACADEMIC COOPERATION FOUDATION, GYEONGSANG …, priority 2008, published 2011)", "key": {"DU145 cell line [1]": {"tested_on": "DU145 cell line", "experiment": "Apoptotic indices by DAPI staining, confocal microscopy", "format": "cell-based, human", "settings": "DU145, 24, 48 and 72 h", "experimental": "The Annexin-V-FLUOS Staining Kit (Roche Diagnostics GmbH, Mannheim, Germany) was used for the detection and quantification of the apoptotic cells. This kit uses a dual-staining protocol in which the apoptotic cells are stained with annexin-V (green fluorescence) and the necrotic cells are stained with propidium iodide (PI, red fluorescence). Briefly, DU145 cell line was grown at a density of 1×10^6 cells in triplicate culture plates and then treated with D-allose (0, 20 and 40 mM) for 48 and 72 h. The cells were treated with trypsin and harvested with PBS and processed for labeling with annexin-V and PI by the use of the kit according to the manufacturer's protocol. The fluorescence was measured by flow cytometric analysis, performed on a FACSCalibur (Becton Dickinson, San Jose, Calif., USA) using 488 nm excitation and a 515 nm band pass filter for fluorescein detection and a filter [600 nm for PI detection (FL1: Annexin-V-FLUOS; FL2: PI). Further, apoptotic indices were measured by analysis of fragmented or scattered nuclei and condensed chromosome as the stringent morphological criteria of apoptosis, detectable by confocal microscopy on cells stained with DNA-intercalating dye […] (DAPI). For this purpose, DU145 and PrEC cell lines were exposed to 0, 20 and 40 mM of D-allose for up to 72 h, stained with DAPI (1 μg/ml in methanol), mounted with Prolong Antifade reagent (Molecular Probes, Eugene, Oreg., USA), and images were acquired by use of a confocal laser scanning microscope (Fluoview FV 1000, Olympus, Japan). The numbers of apoptotic nuclei per 100 cells were counted from the five high power fields/slide and apoptotic indices were expressed as a percentage of the untreated controls in each cell line, considering the value as 100%. DU145 cell line was also treated with 0-40 mM of D-glucose for determination of apoptotic indices as mentioned above."}, "DU145 cell line [2]": {"tested_on": "DU145 cell line", "experiment": "Cell viability / cell growth, MTT assay", "format": "cell-based, human", "settings": "DU145, 0-40 mM, compared to control", "experimental": "DU145 (human HRPC cell line, derived from a patient with brain metastasis) and PrEC (human normal prostate epithelial cell line) cell lines were obtained from Korea Cell Line Bank (KCLB, Seoul, South Korea). DU145 and PrEC cell lines were grown in triplicate culture plates containing RPMI-1640 (HyClone, Logan, Utah, USA) and Dulbecco's Modified Eagle's Medium (HyClone, Logan, Utah, USA) respectively, and kept in a humidified atmosphere containing 5% CO2 at 37° C. for 72 h. The media were supplemented with 10% heat-inactivated fetal bovine serum (HyClone, Logan, Utah, USA), 1% antibio-antimicotic solution containing 10,000 units/ml of penicillin and 10 mg/ml of streptomycin (HyClone, Logan, Utah, USA), HEPES, sodium bicarbonate, p-aminobenzoic acid and insulin (complete culture media). D-Allose was purchased from Sigma (St. Louis, Mo., USA) and dissolved at a concentration of 1 M in sterile phosphate-buffered saline (PBS), and was further sterilized by filtration. To examine the dose- and time-dependent effects, the cell lines (70-80% confluent) were treated with 0-40 mM of D-allose for up to 72 h, whereas without D-allose treated cell lines (0 mM) were considered as control. DU145 cell line was also treated with 0-40 mM of D-glucose. All the other chemicals used in the work were procured from Sigma (St. Louis, Mo., USA), unless otherwise specified.\nThe logarithmic growth phase of DU145 and PrEC cell lines were taken for growth assay using 3-[4,5-dimethylthiazol-2-yl]-2,5-diphenyl tetrazolium bromide (MTT). […] After incubation for the specified time at 37° C. in a humidified 5% CO2 incubator, cell viability was determined. […] To achieve solubilization of formazan crystal formed in viable cells, DMSO was added to each well, and the absorbance was recorded on a microplate reader at 595 nm wavelength. The effect of sugars on growth inhibition was assessed as percent cell viability where control cells were taken as 100% viable."}}, "data": [{"smiles": "O=C[C@H](O)[C@@H](O)[C@H](O)[C@H](O)CO", "note": "[D-glucose, reference compound]", "values": [{"measurement": "programmed cell death (apoptotic indices, DAPI staining)", "setting": "DU145 cell line [1]", "value": "no remarkable effect"}, {"measurement": "cell growth (MTT assay)", "setting": "DU145 cell line [2]", "value": "significant increase of cell growth in a dose-dependent manner"}]}]}
